Broadly, the Cmax is the highest concentration seen after dosing. By half-life is commonly meant the time needed for the level to fall by half in the phase considered. High values mean slow decline, low ones rapid decline.

A short description of data set [1]: (§1) Volume of distribution at steady state was determined after 1 mg/kg (i.v.) / 2 mg/kg (p.o.) of compound administration. Format: ADME, organism-based. The settings on record: rat, in vivo, iv, read-out: Vdss.
Data set [2] is described as follows: (§2) Maximum plasma concentration reached by compound was determined after 2 mg/kg (p.o.) administration. The settings on record: rat, po. Set-up: dose 2 mg/kg, route oral. Type of data set: ADME, organism-based.
Data set [3] can be described thus: (§3) Half-life period was determined after 1 mg/kg (i.v.) / 2 mg/kg (p.o.) of compound administration. Type of data set: ADME, organism-based, Canis lupus familiaris. The settings on record: dog, in vivo.
A short description of data set [4]: as §1. Type of data set: ADME, organism-based, Canis lupus familiaris. The settings on record: dog, in vivo, iv, read-out: Vdss.
Data set [5] in a line: (§4) Plasma clearance was determined after 1 mg/kg (i.v.) / 2 mg/kg (p.o.) of compound administration. The settings on record: dog, iv, read-out: Clp. Type of data set: ADME, organism-based, Canis lupus familiaris.
Data set [6] is described as follows: as §3. The settings on record: rat, in vivo. Format: ADME, organism-based.
Data set [7] can be described thus: as §2. Further details: dose 2 mg/kg, route oral. The settings on record: dog, po. Type of data set: ADME, organism-based, Canis lupus familiaris.
Data set [8] can be described thus: as §4. Format: ADME, organism-based. Conditions: rat, iv, read-out: Clp.

In the case of `N[C@H](C(=O)N1CC[C@H](F)C1)[C@H]1CC[C@H](NS(=O)(=O)c2ccc(F)cc2F)CC1`, the Vd in data set [1] worked out at 2.5 L/kg; in data set [4], 4.4 L/kg. The results for the highest concentration (Cmax) in data set [2] and in data set [7] were 400 nM and 1000 nM, respectively. Also, the half-life was 5.9 h in data set [3] and 1.6 h in data set [6]. Moreover, the clearance in data set [5] came out at 9.1 mL/min/kg; in data set [8] it was 24 mL/min/kg.
